Patent US9682976B2, “Protein kinase C inhibitors and uses thereof” (Rigel Pharmaceuticals, Inc., priority 2012, dated 2017)

Tested on: PKC mediated IL-2 production
Experiment: IL-2 ELISA, human primary T cell, anti CD3+CD28+
Format: cell-based
Settings: Homo sapiens, T-cell, 24 h, human primary T cells stimulated with αCD3 and αCD28, 24 hours
In short: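 IL-2 was quantified by ELISA in 24 h supernatants from primary human T cells given a 1 h compound pre-treatment at 37° C. These cells had been expanded from blood mononuclear cells on αCD3/αCD28 with IL-2, and the IL-2 was removed by washing. Stimulation used plate-bound αCD3 ([…]) plus αCD28 (5 μg/ml); the counter assay used PMA (0.5 ng/ml) with ionomycin (0.1 uM) instead.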

Structure (SMILES)	EC50 [nM]
COc1ccc(Nc2ncc(F)c(N[C@@H]3C[C@@H]4CCCN4C(C)(C)C3)n2)cc1-n1nnnc1OC1COC1 [Compound 284, 5-fluoro-N4-((7R,8aS)-octahydro-5,5-dimethylindolizin-7-yl)-N2-(4-methoxy-3-(5-(oxetan-3-yloxy)-1H-tetrazol-1-yl)phenyl)pyrimidine-2,4-diamine]	< 100
COc1ccc(Nc2ncc(F)c(N[C@@H]3C[C@@H]4CCCN4C(C)(C)C3)n2)cc1-n1nnn(C2COC2)c1=O [Compound 285, 1-(5-(4-((7R,8aS)-octahydro-5,5-dimethylindolizin-7-ylamino)-5-fluoropyrimidin-2-ylamino)-2-methoxyphenyl)-4-(oxetan-3-yl)-1H-tetrazol-5(4H)-one]	100 to 500
Cc1ccc(Nc2ncc(F)c(N[C@@H]3C[C@@H]4CCCN4C(C)(C)C3)n2)cc1-n1nnnc1S(C)(=O)=O [Compound 286, 5-fluoro-N4-((7R,8aS)-octahydro-5,5-dimethylindolizin-7-yl)-N2-(4-methyl-3-(5-(methylsulfonyl)-1H-tetrazol-1-yl)phenyl)pyrimidine-2,4-diamine]	> 10000
Cn1nc2n(c1=O)-c1cc(Nc3ncc(F)c(N[C@@H]4C[C@@H]5CCCN5C(C)(C)C4)n3)ccc1OC2(CO)CO [Compound 288, 5-fluoro-N2-(1H-2,4-dihydron-4,4-di(hydroxymethyl)-2-methyl-[1,2,4]triazolo[3,4-c][1,4]benzoxazin-1-one-8-yl)-N4-((7R,8aS)-octahydro-5,5-dimethylindolizin-7-yl)pyrimidine-2,4-diamine]	1000 to 10000
Cc1ccc(Nc2ncc(F)c(N[C@@H]3C[C@@H]4CCCN4C(C)(C)C3)n2)cc1-n1nnn(CC(C)(C)O)c1=O [Compound 289, 1-(5-(4-((7R,8aS)-octahydro-5,5-dimethylindolizin-7-ylamino)-5-fluoropyrimidin-2-ylamino)-2-methylphenyl)-4-(2-hydroxy-2-methylpropyl)-1H-tetrazol-5(4H)-one]	< 100
COc1ccc(Nc2ncc(F)c(N[C@@H]3C[C@@H]4CCCN4C(C)(C)C3)n2)cc1-n1nnn(CC(C)(C)O)c1=O [Compound 290, 1-(5-(4-((7R,8aS)-octahydro-5,5-dimethylindolizin-7-ylamino)-5-fluoropyrimidin-2-ylamino)-2-methoxyphenyl)-4-(2-hydroxy-2-methylpropyl)-1H-tetrazol-5(4H)-one]	100 to 500
Cn1nc2n(c1=O)-c1cc(Nc3ncc(F)c(N[C@@H]4C[C@@H]5CCCN5C(C)(C)C4)n3)ccc1OC2 [Compound 291, 5-fluoro-N2-(1H-2,4-dihydron-2-methyl-[1,2,4]triazolo[3,4-c][1,4]benzoxazin-1-one-8-yl)-N4-((7R,8aS)-octahydro-5,5-dimethylindolizin-7-yl)pyrimidine-2,4-diamine]	100 to 500
Cn1nc2n(c1=O)-c1cc(Nc3ncc(F)c(N[C@@H]4C[C@@H]5CCCN5C(C)(C)C4)n3)ccc1OCC2(C)O (stereo partly drawn) [Compound 292, 5-fluoro-N2-(1H-2,3,4,5-tetrahydron-2,4-dimethyl-4-hydroxy-[1,2,4]triazolo[4,5-c][1,5]benzoxazepin-1-one-9-yl)-N4-((7R,8aS)-octahydro-5,5-dimethylindolizin-7-yl)pyrimidine-2,4-diamine]	500 to 1000
Cn1nc2n(c1=O)-c1cc(Nc3ncc(F)c(N[C@@H]4C[C@@H]5CCCN5C(C)(C)C4)n3)ccc1OC21COC1 [Compound 293, 5-fluoro-N2-(1H-2,4-dihydron-spiro(2H-1,4-benzoxazine-4,3′-[3H]oxetan)-2-methyl-[1,2,4]triazolo[3,4-c][1,4]benzoxazin-1-one-8-yl)-N4-((7R,8aS)-octahydro-5,5-dimethylindolizin-7-yl)pyrimidine-2,4-diamine]	100 to 500
COCC1(COC)Oc2ccc(Nc3ncc(F)c(N[C@@H]4C[C@@H]5CCCN5C(C)(C)C4)n3)cc2-n2c1nn(C)c2=O [Compound 296, 5-fluoro-N2-(1H-2,4-dihydron-2-methyl-4,4-di(methoxymethyl)[1,2,4]triazolo[3,4-c][1,4]benzoxazin-1-one-8-yl)-N4-((7R,8aS)-octahydro-5,5-dimethylindolizin-7-yl)pyrimidine-2,4-diamine]	500 to 1000
CC1(C)CC[C@H]2C[C@@H](Nc3nc(Nc4cc(-n5nnnc5C5COC5)c(C5CC5)cc4F)ncc3F)CCN21 [Compound 301, N2-(4-Cyclopropyl-2-fluoro-5-(5-(oxetan-3-yl)-1H-tetrazol-1-yl)phenyl)-N4-((7S,8aS)-3,3-dimethyloctahydroindolizin-7-yl)-5-fluoropyrimidine-2,4-diamine]	< 100
[2H]C1(Oc2ccc(Nc3ncc(F)c(N[C@H]4CCN5[C@@H](CCC5(C)C)C4)n3)cc2-n2nnn(C)c2=O)CC(O)C1 (stereo partly drawn) [Compound 309, 1-(5-((4-(((7S,8aS)-3,3-Dimethyloctahydroindolizin-7-yl)amino)-5-fluoropyrimidin-2-yl)amino)-2-(3-hydroxycyclobutoxy-1-d)phenyl)-4-methyl-1,4-dihydro-5H-tetrazol-5-one]	100 to 500
CC1(C)CC[C@H]2C[C@@H](Nc3nc(Nc4ccc(OC5CC(OCc6ccccc6)C5)c(Cl)c4)ncc3F)CCN21 (stereo partly drawn) [Compound 310, N2-(4-(3-(Benzyloxy)cyclobutoxy)-3-chlorophenyl)-N4-((7S,8aS)-3,3-dimethyloctahydroindolizin-7-yl)-5-fluoropyrimidine-2,4-diamine]	1000 to 10000

Next, values leading:

EC50 [nM]	Structure (SMILES)
100 to 500	CC1(C)CC[C@H]2C[C@@H](Nc3nc(Nc4ccc(N5CCOCC5)c(OC(F)F)c4)ncc3F)CCN21 [Compound 297]
100 to 500	CC1(C)CC[C@H]2C[C@@H](Nc3nc(Nc4ccc(OC5COC5)c(OC(F)F)c4)ncc3F)CCN21 [Compound 298, N2-(3-(Difluoromethoxy)-4-(oxetan-3-yloxy)phenyl)-N4-((7S,8aS)-3,3-dimethyloctahydroindolizin-7-yl)-5-fluoropyrimidine-2,4-diamine]
100 to 500	COc1ccc(Nc2ncc(F)c(N[C@H]3CCN4[C@@H](CCC4(C)C)C3)n2)cc1OC(F)F [Compound 299, N2-(3-(Difluoromethoxy)-4-methoxyphenyl)-N4-((7S,8aS)-3,3-dimethyloctahydroindolizin-7-yl)-5-fluoropyrimidine-2,4-diamine]
100 to 500	CC1CN(c2ccc(Nc3ncc(F)c(N[C@H]4CCN5[C@@H](CCC5(C)C)C4)n3)cc2OC(F)F)CC(C)O1 (stereo partly drawn) [Compound 300, N2-(3-(Difluoromethoxy)-4-(2,6-dimethylmorpholino)phenyl)-N4-((7S,8aS)-3,3-dimethyloctahydroindolizin-7-yl)-5-fluoropyrimidine-2,4-diamine]
500 to 1000	CC1(C)CC[C@H]2C[C@@H](Nc3nc(Nc4ccc(N5CC6(COC6)C5)c(OC(F)F)c4)ncc3F)CCN21 [Compound 302, N2-(3-(Difluoromethoxy)-4-(2-oxa-6-azaspiro[3.3]heptan-6-yl)phenyl)-N4-((7S,8aS)-3,3-dimethyloctahydroindolizin-7-yl)-5-fluoropyrimidine-2,4-diamine]
100 to 500	CC1(C)CC[C@H]2C[C@@H](Nc3nc(Nc4ccc(OCCO)c(OC(F)F)c4)ncc3F)CCN21 [Compound 303, 2-(2-(Difluoromethoxy)-4-((4-(((7S,8aS)-3,3-dimethyloctahydroindolizin-7-yl)amino)-5-fluoropyrimidin-2-yl)amino)phenoxy)ethan-1-ol]
100 to 500	CC1(C)CC[C@H]2C[C@@H](Nc3nc(Nc4ccc(OC5CC(O)C5)c(C#N)c4)ncc3F)CCN21 (some centres unmarked) [Compound 304]
100 to 500	CC1(C)CC[C@H]2C[C@@H](Nc3nc(Nc4ccc(OC5CC(O)C5)c(C(F)(F)F)c4)ncc3F)CCN21 (stereo partly drawn) [Compound 305, 3-(4-((4-(((7S,8aS)-3,3-Dimethyloctahydroindolizin-7-yl)amino)-5-fluoropyrimidin-2-yl)amino)-2-(trifluoromethyl)phenoxy)cyclobutan-1-ol]
100 to 500	CC1(C)CC[C@H]2C[C@@H](Nc3nc(Nc4ccc(OC5CC(O)C5)c(OC(F)F)c4)ncc3F)CCN21 (stereo partly drawn) [Compound 306, 3-(2-(Difluoromethoxy)-4-((4-(((7S,8aS)-3,3-dimethyloctahydroindolizin-7-yl)amino)-5-fluoropyrimidin-2-yl)amino)phenoxy)cyclobutan-1-ol]
100 to 500	CC1(C)CC[C@H]2C[C@@H](Nc3nc(Nc4ccc(OCCCO)c(OC(F)F)c4)ncc3F)CCN21 [Compound 307, 3-(2-(Difluoromethoxy)-4-((4-(((7S,8aS)-3,3-dimethyloctahydroindolizin-7-yl)amino)-5-fluoropyrimidin-2-yl)amino)phenoxy)propan-1-ol]
500 to 1000	CC1(C)CC[C@H]2C[C@@H](Nc3nc(Nc4ccc(N5CC(O)C5)c(OC(F)F)c4)ncc3F)CCN21 [Compound 308, 1-(2-(Difluoromethoxy)-4-((4-(((7S,8aS)-3,3-dimethyloctahydroindolizin-7-yl)amino)-5-fluoropyrimidin-2-yl)amino)phenyl)azetidin-3-ol]

Same assay, conditions: T-cell, human primary T cells stimulated with αCD3 and αCD28, 24 hours

Structure (SMILES)	EC50 [nM]
Cn1nc2n(c1=O)-c1cc(Nc3ncc(F)c(N[C@@H]4C[C@@H]5CCCN5C(C)(C)C4)n3)ccc1OC2(CO)CO[Si](C)(C)C(C)(C)C (stereo partly drawn) [Compound 287, 5-fluoro-N2-(1H-2,4-dihydron-4-(hydroxymethyl)-4-(((1,1-dimethylethyl)dimethylsilyl)oxymethyl)-2-methyl-[1,2,4]triazolo[3,4-c][1,4]benzoxazin-1-one-8-yl)-N4-((7R,8aS)-octahydro-5,5-dimethylindolizin-7-yl)pyrimidine-2,4-diamine]	1000 to 10000

Same assay, conditions: human primary T cells stimulated with αCD3 and αCD28, 24 hours

EC50 [nM]	Structure (SMILES)
500 to 1000	Cn1nc2n(c1=O)-c1cc(Nc3ncc(F)c(N[C@@H]4C[C@@H]5CCCN5C(C)(C)C4)n3)ccc1OCC2(C)O (stereo partly drawn) [Compound 295, 5-fluoro-N2-(1H-2,3,4,5-tetrahydron-2,4-dimethyl-4-hydroxy-[1,2,4]triazolo[4,5-c][1,5]benzoxazepin-1-one-9-yl)-N4-((7R,8aS)-octahydro-5,5-dimethylindolizin-7-yl)pyrimidine-2,4-diamine]
